In brackets after ≈: the same amount, converted by molar mass.
Experiments:
[1] = Cytotoxicity against Vero cells assessed as alteration in cell morphology; assay type: cell-based; settings: chlorocebus sabaeus
[2] = Cytotoxicity against E6SM cells assessed as alteration in cell morphology; assay type: cell-based; settings: human
[3] = system: Human immunodeficiency virus 2; assay type: functional, organism-based; settings: Human immunodeficiency virus 2, ROD, CCRF-CEM
Human alphaherpesvirus 1 [4] = assay type: functional, organism-based; settings: Human alphaherpesvirus 1, KOS, HEL
Human alphaherpesvirus 2 [5] = assay type: functional, organism-based; settings: Human alphaherpesvirus 2, G, HEL
[6] = system: Human immunodeficiency virus 1; assay type: functional, organism-based; settings: Human immunodeficiency virus 1, 3B, CCRF-CEM
[7] = system: Respiratory syncytial virus; assay type: functional, organism-based; settings: human respiratory syncytial virus, Long, HeLa
Human betaherpesvirus 5 [8] = assay type: functional, organism-based; settings: Human betaherpesvirus 5, Davis, HEL
[9] = Cytotoxicity against Huh5-2 cells assessed as reduction of cell growth; assay type: cell-based, Huh-5-2; settings: human
[10] = system: Moloney murine sarcoma virus; experiment: Antiviral activity against MSV in mouse C3H cells assessed as inhibition of virus-induced transformation after 6 days; assay type: functional, organism-based; settings: 144 h
[11] = system: Vesicular stomatitis virus; experiment: microbe, parasite or virus in culture; settings: HeLa
Human alphaherpesvirus 3 [12] = experiment: Antiviral activity against VZV OKA in HEL cells assessed as inhibition of plaque formation; assay type: functional, organism-based; settings: Human alphaherpesvirus 3, OKA
Coxsackievirus B4 [13] = assay type: functional, organism-based; settings: Enterovirus B, Vero
Human betaherpesvirus 5 [14] = assay type: functional, organism-based; settings: Human betaherpesvirus 5, AD169, HEL
HEL = experiment: Cytotoxicity against HEL cells assessed as inhibition of cell growth after 3 days; assay type: cell-based; settings: human, 72 h
[15] = Cytotoxicity against HSB2 cells assessed as alteration in cell morphology; assay type: cell-based, CCRF-HSB-2; settings: human, read-out: Activity
Vaccinia virus = assay type: functional, organism-based; settings: Orthopoxvirus vaccinia, Lederle, HEL
Human respirovirus 3 = assay type: functional, organism-based; settings: Human respirovirus 3, Vero
Human alphaherpesvirus 1 [16] = assay type: functional, organism-based; settings: Human alphaherpesvirus 1, KOS, HEL; remark: listed apart in the source
[17] = Cytotoxicity against HEL cells assessed as alteration in cell morphology after 3 days; assay type: cell-based; settings: human, read-out: Activity
Yellow fever virus = assay type: functional, organism-based; settings: Vero
Human alphaherpesvirus 3 [18] = experiment: Antiviral activity against TK- VZV 07-1 in HEL cells assessed as inhibition of plaque formation; assay type: functional, organism-based; settings: Human alphaherpesvirus 3, 07-1, HEL
[19] = system: Mammalian orthoreovirus 1; assay type: functional, organism-based; settings: Mammalian orthoreovirus 1, Vero
Human adenovirus 2 = assay type: functional, organism-based; settings: Human mastadenovirus C, HEL
Human alphaherpesvirus 2 [20] = assay type: functional, organism-based; settings: Human alphaherpesvirus 2, Lyons, HEL
[21] = Cytotoxicity against HeLa cells assessed as alteration in cell morphology; assay type: cell-based; settings: human
Sindbis virus = assay type: functional, organism-based; settings: Vero
[22] = Cytotoxicity against CEM cells assessed as reduction of cell growth; assay type: cell-based; settings: human, CEM (CCRF-CEM) cells
Punta Toro virus = assay type: functional, organism-based; settings: Vero
[23] = Cytotoxicity against C3H cells assessed as alteration in cell morphology; assay type: cell-based; settings: mouse
[24] = system: Vesicular stomatitis virus; experiment: microbe, parasite or virus in culture; settings: E6SM
Coxsackievirus B4 [25] = assay type: functional, organism-based; settings: Enterovirus B, HeLa
Hepatitis C virus = experiment: Antiviral activity against HCV in Huh5-2 cells assessed as inhibition of HCV subgenomic replicon replication; assay type: functional, organism-based, Hepacivirus hominis; settings: Huh-5-2

Row | Compound | MCC [1] [µg/mL] | MCC [2] [µg/mL] | EC50 [3] [µg/mL] | EC50 (Human alphaherpesvirus 1 [4]) [µg/mL] | EC50 (Human alphaherpesvirus 2 [5]) [µg/mL] | EC50 [6] [µg/mL] | EC50 [7] [µg/mL] | EC50 (Human betaherpesvirus 5 [8]) [µg/mL] | EC50 [10] [µg/mL] | EC50 [11] [µg/mL] | EC50 (Human alphaherpesvirus 3 [12]) [µg/mL] | EC50 (Coxsackievirus B4 [13]) [µg/mL] | EC50 (Human betaherpesvirus 5 [14]) [µg/mL] | Activity (HEL) | EC50 (Vaccinia virus) [µg/mL] | EC50 (Human respirovirus 3) [µg/mL] | EC50 (Human alphaherpesvirus 1 [16]) [µg/mL] | MCC at 72 h [17] [µg/mL] | EC50 [19] [µg/mL] | EC50 (Human alphaherpesvirus 2 [20]) [µg/mL] | further results
1 | NC(N)=NC(=O)NC[C@@H](CO)OCP(=O)(O)O | > 100 | > 100 | > 100 | > 50 | > 50 | > 100 | > 100 | 36.8 (≈ 136 µM) | 68 (≈ 252 µM) | > 100 | > 50 | > 100 | 35.5 (≈ 131 µM) | > 50 µg/mL | > 100 | > 100 | > 50 | > 50 | > 100 | > 50 | CC50 [9]: > 50 µg/mL; MCC [15]: > 200 µg/mL; EC50 (Yellow fever virus): > 100 µg/mL; EC50 (Human alphaherpesvirus 3 [18]): > 50 µg/mL; EC50 (Human adenovirus 2): > 100 µg/mL; MCC [21]: > 100 µg/mL; EC50 (Sindbis virus): > 100 µg/mL; CC50 [22]: > 100 µg/mL; EC50 (Punta Toro virus): > 100 µg/mL; MCC [23]: > 100 µg/mL; EC50 [24]: > 100 µg/mL; EC50 (Coxsackievirus B4 [25]): > 100 µg/mL
2 | Nc1ncn(C[C@@H](CO)OCP(=O)(O)O)c(=O)n1 | 400 | > 400 | > 100 | 0.077 (≈ 0.275 µM) | 0.35 (≈ 1.25 µM) | > 100 | > 400 | 0.054 (≈ 0.193 µM) | 22 (≈ 78.5 µM) | > 400 | 0.027 (≈ 0.0964 µM) | > 80 | 0.078 (≈ 0.278 µM) | >= 140 ug ml-1 | 2.56 (≈ 9.14 µM) | > 80 | 0.24 (≈ 0.857 µM) | > 50 | > 80 | 0.25 (≈ 0.892 µM) | CC50 [9]: > 50 µg/mL; MCC [15]: 16 µg/mL; EC50 (Hepatitis C virus): > 50 µg/mL; EC50 (Yellow fever virus): > 100 µg/mL; EC50 (Human alphaherpesvirus 3 [18]): 0.019 µg/mL (≈ 0.0678 µM); MCC [21]: > 400 µg/mL; EC50 (Sindbis virus): > 80 µg/mL; CC50 [22]: 28 µg/mL (≈ 99.9 µM); EC50 (Punta Toro virus): > 80 µg/mL; MCC [23]: 20 µg/mL; EC50 [24]: > 400 µg/mL; EC50 (Coxsackievirus B4 [25]): > 400 µg/mL
3 | Nc1ncn(C[C@H](O)CO)c(=O)n1 | > 100 | > 100 | > 100 | > 100 | > 100 | > 100 | > 100 | > 100 | > 100 | > 100 | > 100 | > 100 | > 100 | > 100 µg/mL | > 100 | > 100 | > 100 | > 100 | > 100 | > 100 | EC50 (Human alphaherpesvirus 3 [18]): > 100 µg/mL; MCC [21]: > 100 µg/mL; EC50 (Sindbis virus): > 100 µg/mL; CC50 [22]: > 100 µg/mL; EC50 (Punta Toro virus): > 100 µg/mL; MCC [23]: > 100 µg/mL; EC50 [24]: > 100 µg/mL; EC50 (Coxsackievirus B4 [25]): > 100 µg/mL
4 | Nc1ncn(CCOCP(=O)(O)O)c(=O)n1 | 400 | 400 | > 100 | 9.9 (≈ 39.6 µM) | 25.8 (≈ 103 µM) | > 100 | > 80 | 37 (≈ 148 µM) | 7.5 (≈ 30 µM) | > 80 | 25 (≈ 99.9 µM) | > 80 | 49 (≈ 196 µM) | > 50 µg/mL | > 100 | > 80 | 17 (≈ 68 µM) | > 100 | > 80 | 39.3 (≈ 157 µM) | CC50 [9]: > 50 µg/mL; EC50 (Hepatitis C virus): > 50 µg/mL; EC50 (Yellow fever virus): > 100 µg/mL; EC50 (Human alphaherpesvirus 3 [18]): 10 µg/mL (≈ 40 µM); MCC [21]: 400 µg/mL; EC50 (Sindbis virus): > 80 µg/mL; CC50 [22]: 96 µg/mL (≈ 384 µM); EC50 (Punta Toro virus): > 80 µg/mL; MCC [23]: 200 µg/mL; EC50 [24]: > 80 µg/mL; EC50 (Coxsackievirus B4 [25]): > 80 µg/mL
5 | NC(=NC(=O)NC[C@@H](CO)OCP(=O)(O)O)NC=O | > 100 | > 100 | > 100 | 1.35 (≈ 4.53 µM) | 6.58 (≈ 22.1 µM) | > 100 | > 100 | 0.12 (≈ 0.402 µM) | 130 (≈ 436 µM) | > 100 | 0.042 (≈ 0.141 µM) | > 100 | 0.1 (≈ 0.335 µM) | > 50 µg/mL | 8.35 (≈ 28 µM) | > 100 | 2.85 (≈ 9.56 µM) | > 50 | > 100 | 3.16 (≈ 10.6 µM) | MCC [15]: ≥ 200 µg/mL; EC50 (Human alphaherpesvirus 3 [18]): 0.046 µg/mL (≈ 0.154 µM); EC50 (Human adenovirus 2): 17.8 µg/mL (≈ 59.7 µM); MCC [21]: > 100 µg/mL; EC50 (Sindbis virus): > 100 µg/mL; CC50 [22]: ≥ 100 µg/mL; EC50 (Punta Toro virus): > 100 µg/mL; MCC [23]: > 100 µg/mL; EC50 [24]: > 100 µg/mL; EC50 (Coxsackievirus B4 [25]): > 100 µg/mL
6 | Nc1cnn(C[C@@H](CO)OCP(=O)(O)O)c(=O)n1 | 400 | > 400 | > 100 | 8.84 (≈ 31.6 µM) | 31.5 (≈ 112 µM) | > 100 | > 400 | 37.3 (≈ 133 µM) | 170 (≈ 607 µM) | > 400 | 38.2 (≈ 136 µM) | > 80 | 30 (≈ 107 µM) | > 50 µg/mL | 63.1 (≈ 225 µM) | > 80 | 24.9 (≈ 88.9 µM) | > 100 | > 80 | ≥ 43.4 | CC50 [9]: 111 µg/mL (≈ 396 µM); EC50 (Hepatitis C virus): 750 µg/mL (≈ 2680 µM); EC50 (Yellow fever virus): > 100 µg/mL; EC50 (Human alphaherpesvirus 3 [18]): 18.4 µg/mL (≈ 65.7 µM); EC50 (Human adenovirus 2): > 100 µg/mL; MCC [21]: > 400 µg/mL; EC50 (Sindbis virus): > 80 µg/mL; CC50 [22]: > 100 µg/mL; EC50 (Punta Toro virus): > 80 µg/mL; MCC [23]: 100 µg/mL; EC50 [24]: > 400 µg/mL; EC50 (Coxsackievirus B4 [25]): > 400 µg/mL
7 | Nc1ncn(C[C@H](CO)OCP(=O)(O)O)c(=O)n1 | > 200 | > 200 | > 100 | 11.8 (≈ 42.1 µM) | 12.6 (≈ 45 µM) | > 100 | > 200 | 8.9 (≈ 31.8 µM) | > 100 | > 200 | 13.8 (≈ 49.3 µM) | > 200 | 7.3 (≈ 26.1 µM) | > 100 µg/mL | ≥ 81.6 | > 200 | 17.8 (≈ 63.5 µM) | > 100 | > 200 | 14.8 (≈ 52.8 µM) | CC50 [9]: > 50 µg/mL; MCC [21]: > 200 µg/mL; EC50 (Sindbis virus): > 200 µg/mL; CC50 [22]: > 100 µg/mL; EC50 (Punta Toro virus): > 200 µg/mL; MCC [23]: > 100 µg/mL; EC50 [24]: > 200 µg/mL; EC50 (Coxsackievirus B4 [25]): > 200 µg/mL

— ChEMBL document CHEMBL1142867, “Antiviral activity of triazine analogues of 1-(S)-[3-hydroxy-2-(phosphonomethoxy)propyl]cytosine (cidofovir) and related compounds” (J Med Chem, 2007)
